Test results reported in patent US11319304B2, “Pyridine quinoline compounds as MGLUR4 allosteric potentiators, compositions, and methods of treating neurological dysfunction” (Vanderbilt University, priority 2017, dated 2022).

Each compound was assayed against mGluR4 (Homo sapiens, UniProt Q14833) (assay: mGlu4 PAM potentiation assay, CHO cells transfected with human mGluR4, Ca2+-sensitive dye fluorescence).
Type: cell-based
Procedure: The disclosed compounds and compositions can be evaluated for their ability to act as a potentiator of metabotropic glutamate receptor activity, in particular mGluR4 activity, by any suitable known methodology known in the art. For example, Chinese Hamster Ovary (CHO) cells transfected with human mGluR4 or HEK cells co-transfected with rat mGluR4 and the G-protein regulated Inwardly Rectifying Potassium channel (GIRK) were plated in clear bottom, assay plates for assay in a Hamamatsu FDSS Fluorometric Plate Reader. The cells were loaded with either a Ca2+-sensitive fluorescent dye or the thallium responsive dye and the plates were washed and placed into a suitable kinetic plate reader. For human mGluR4 assays, a fluorescence baseline was established for 3-5 seconds, the disclosed compounds were then added to the cells, and the response in cells was measured. Approximately two and a half minutes later, a concentration of mGluR4 orthosteric agonist (e.g. glutamate, L-AP4, or L-SOP) eliciting approximately 20% (EC20) of the maximal agonist response was added to the cells, and the response was measured. Two minutes later, a concentration of mGluR4 agonist (e.g. glutamate, L-AP4, or L-SOP) eliciting 80% (EC80) of the maximal agonist response was added to the cells, and the response was measured. For rat mGluR4/GIRK experiments, a baseline was established for approximately five seconds, disclosed compounds were added, and either an EC20 or EC80 concentration of agonist was added approximately two and one half minutes later. Potentiation or antagonism of the agonist response of mGluR4 by the disclosed compounds was observed as an increase or decrease in response to the EC20 concentration of agonist in the presence of compound compared to the response to agonist in the absence of compound. Similarly, potentiation or antagonism of the agonist response of mGluR4 by the disclosed Compounds was observed as an increase or decrease in response to the EC80 concentration of agonist in the presence of compound compared to the response to agonist in the absence of compound.
The above described assay operated in two modes. In the first mode, a range of concentrations of the disclosed compounds are added to cells, followed by a single fixed concentration of agonist. If the compound acts as a potentiatior, an EC50 value for potentiation and a maximum extent of potentiation by the compound at this concentration of agonist is determined by non-linear curve fitting. If the compound acts as an antagonist, an IC50 value is determined by non-linear curve fitting. In the second mode, several fixed concentrations of the disclosed compounds are added to various wells on a plate, followed by a range in concentrations of agonist for each concentration of disclosed compound. The EC50 values for the agonist at each concentration of compound are determined by non-linear curve fitting. A decrease in the EC50 value of the agonist with increasing concentrations of the sample compound (a leftward shift of the agonist concentration-response curve) is an indication of the degree of mGluR4 potentiation at a given concentration of the sample compound. A decrease in the maximal response of the agonist with increasing concentrations of the sample compounds, with or without a rightward shift in agonist potency, is an indication of the degree of antagonism at mGluR4. The second mode also indicates whether the sample compounds also affect the maximum response to mGluR4 to agonists.

mGluR4, sequence (Q14833 33-912 limits assumed): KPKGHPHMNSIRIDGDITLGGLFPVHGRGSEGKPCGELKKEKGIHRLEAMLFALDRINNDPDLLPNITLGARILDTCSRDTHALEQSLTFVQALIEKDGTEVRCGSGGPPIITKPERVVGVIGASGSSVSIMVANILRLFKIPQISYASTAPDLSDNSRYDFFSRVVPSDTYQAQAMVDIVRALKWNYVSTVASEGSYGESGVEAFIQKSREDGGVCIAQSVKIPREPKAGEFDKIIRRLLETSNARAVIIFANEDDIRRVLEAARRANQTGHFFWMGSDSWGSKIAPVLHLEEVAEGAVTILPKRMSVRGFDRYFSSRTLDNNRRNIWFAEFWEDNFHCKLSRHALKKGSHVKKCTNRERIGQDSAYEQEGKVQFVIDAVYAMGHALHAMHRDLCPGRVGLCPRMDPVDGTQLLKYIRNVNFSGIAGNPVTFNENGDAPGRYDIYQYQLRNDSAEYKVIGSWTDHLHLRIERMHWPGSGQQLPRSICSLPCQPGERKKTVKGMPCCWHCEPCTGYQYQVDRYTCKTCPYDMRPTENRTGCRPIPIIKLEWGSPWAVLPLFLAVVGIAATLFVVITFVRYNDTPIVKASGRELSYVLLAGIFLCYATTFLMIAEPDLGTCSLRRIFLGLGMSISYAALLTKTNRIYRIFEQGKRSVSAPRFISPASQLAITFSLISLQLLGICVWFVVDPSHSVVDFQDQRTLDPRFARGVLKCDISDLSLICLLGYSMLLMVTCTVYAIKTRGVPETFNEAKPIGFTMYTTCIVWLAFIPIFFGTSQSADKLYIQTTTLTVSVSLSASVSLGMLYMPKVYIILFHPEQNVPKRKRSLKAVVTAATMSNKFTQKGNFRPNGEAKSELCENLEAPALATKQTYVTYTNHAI

Point of comparison: O=C(Nc1ccc2c(OCC3COCCO3)nccc2c1)c1ccc(F)cn1 (stereo not shown) [Compound 119], EC50 0.285 µM. Against it:
- O=C(Nc1cc(F)c2c(OCC3CCOC3)nccc2c1)c1cccc(F)n1 (stereo not shown) [Compound 82] — 2.2-fold lower, 0.129 µM
- Nc1cccnc1C(=O)Nc1cc(F)c2c(OCC3COCCO3)nccc2c1 (stereo not shown) [Compound 91] — 3-fold lower, 0.094 µM
- Nc1cccnc1C(=O)Nc1ccc2c(Oc3ccncc3)nccc2c1 [Compound 112] — within 1.5-fold, 0.394 µM
- O=C(Nc1cc(F)c2c(OCC3CCOC3)nccc2c1)c1nc(F)ccc1F (stereo not shown) [Compound 84] — 1.7-fold lower, 0.172 µM
- O=C(Nc1cc(F)c2c(OCC3CCOC3)nccc2c1)c1ccc(F)cn1 (stereo not shown) [Compound 81] — 3.5-fold lower, 0.0816 µM
- O=C(Nc1ccc2c(OCC3CCOC3)nccc2c1)c1ccc(F)cn1 (stereo not shown) [Compound 72] — within 1.5-fold, 0.211 µM
- CC1CC(Oc2nccc3cc(NC(=O)c4ncccc4O)ccc23)CCO1 (stereo not shown) [Compound 45] — 1.6-fold higher, 0.447 µM
- O=C(Nc1ccc2c(OCC3CCOC3)ncc(F)c2c1)c1ccccn1 (stereo not shown) [Compound 60] — 3.4-fold lower, 0.0829 µM
- O=C(Nc1cc(F)c2c(OCC3COCCO3)nccc2c1)c1ccccn1 (stereo not shown) [Compound 90] — 2.5-fold lower, 0.116 µM
- CC1(C)CC(Oc2nccc3cc(NC(=O)c4ncccc4N)cc(F)c23)CCO1 (stereo not shown) [Compound 106] — 2.2-fold lower, 0.127 µM
- CC1CC(Oc2nccc3cc(NC(=O)c4ncccc4N)ccc23)CCO1 (stereo not shown) [Compound 44] — 2.8-fold higher, 0.804 µM
- O=C(Nc1ccc2c(OC3CCOCC3)nccc2c1)c1ccccn1 [Compound 12] — within 1.5-fold, 0.411 µM
- CC1CC(COc2nccc3cc(NC(=O)c4ncccc4O)ccc23)CCO1 (stereo not shown) [Compound 39] — within 1.5-fold, 0.302 µM
- Nc1cccnc1C(=O)Nc1ccc2c(OC3CCOCC3F)nccc2c1 (stereo not shown) [Compound 41] — 3.4-fold lower, 0.0836 µM
- O=C(Nc1cc(F)c2c(OCC3COCCO3)nccc2c1)c1ncccc1F (stereo not shown) [Compound 92] — 1.9-fold lower, 0.152 µM
- O=C(Nc1cc(F)c2c(OCC3CCOCC3)nccc2c1)c1ccccn1 [Compound 94] — 7.6-fold lower, 0.0377 µM
- CC1(C)CC(Oc2nccc3cc(NC(=O)c4ccccn4)cc(F)c23)CCO1 (stereo not shown) [Compound 100] — 4-fold lower, 0.0708 µM
- CC1(C)CC(COc2nccc3cc(NC(=O)c4ccccn4)ccc23)CCO1 (stereo not shown) [Compound 34] — 2.5-fold lower, 0.115 µM
- CC1(C)CC(Nc2nccc3cc(NC(=O)c4ncccc4N)ccc23)CCO1 (stereo not shown) [Compound 76] — 2.2-fold higher, 0.616 µM
- Nc1nccnc1C(=O)Nc1ccc2c(OCC3COCCO3)nccc2c1 (stereo not shown) [Compound 117] — within 1.5-fold, 0.334 µM
- O=C(Nc1ccc2c(O[C@H]3CCOC3)nccc2c1)c1ncccc1O [Compound 11] — 3.1-fold higher, 0.883 µM
- O=C(Nc1ccc2c(OCC3CCOCC3)nccc2c1)c1ccccn1 [Compound 1] — 5.1-fold lower, 0.056 µM
- Nc1cccnc1C(=O)Nc1ccc2c(OCC3COCCO3)ncc(F)c2c1 (stereo not shown) [Compound 68] — 3.1-fold lower, 0.0905 µM
- O=C(Nc1ccc2c(OCC3CCOCC3)nccc2c1)c1ccc(F)cn1 [Compound 105] — 8.4-fold lower, 0.0341 µM
- O=C(Nc1ccc2c(OCC3CCOC3)nccc2c1)c1cccc(F)n1 (stereo not shown) [Compound 87] — 1.6-fold lower, 0.183 µM
- CO[C@H](C)COc1nccc2cc(NC(=O)c3ccccn3)ccc12 [Compound 6] — 1.7-fold lower, 0.166 µM
- Nc1cccnc1C(=O)Nc1ccc2c(OCC3COCCO3)nccc2c1 (stereo not shown) [Compound 116] — 4.5-fold lower, 0.0637 µM
- CC(C)OCCOc1nccc2cc(NC(=O)c3ccccn3)ccc12 [Compound 26] — within 1.5-fold, 0.264 µM
- O=C(Nc1ccc2c(OCC3CCOC3)nccc2c1)c1nc(Cl)ccc1F (stereo not shown) [Compound 89] — 2.9-fold higher, 0.822 µM
- O=C(Nc1ccc2c(OCc3ccncc3)nccc2c1)c1ccc(F)cn1 [Compound 115] — 2.8-fold lower, 0.1 µM
- CC1(C)COCCC1Nc1nccc2cc(NC(=O)c3ncccc3N)ccc12 (stereo not shown) [Compound 77] — 3.2-fold higher, 0.922 µM
- CO[C@@H](C)COc1nccc2cc(NC(=O)c3ncccc3O)ccc12 [Compound 53] — within 1.5-fold, 0.244 µM
- CCOCCOc1nccc2cc(NC(=O)c3ncccc3N)ccc12 [Compound 4] — within 1.5-fold, 0.354 µM
- O=C(Nc1ccc2c(OCC3CCOC3)nccc2c1)c1ccc(Cl)cn1 (stereo not shown) [Compound 85] — 2.2-fold higher, 0.615 µM
- O=C(Nc1cc(F)c2c(OCC3CCOC3)nccc2c1)c1ncccc1F (stereo not shown) [Compound 80] — within 1.5-fold, 0.312 µM
- CC1(C)CC(Oc2nccc3cc(NC(=O)c4ncccc4N)ccc23)CCO1 (stereo not shown) [Compound 24] — within 1.5-fold, 0.31 µM
